According to ChEMBL document CHEMBL1201862, “PubChem BioAssay data set” (2004):
Active and inactive are the calls of the source.

Tests used:
Melanocortin receptor 4 = Melanocortin receptor 4 (Homo sapiens, UniProt P32245); format: functional, cell-based;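 further: Cell-based assay with luminescence read-out, confirmatory dose-response testing for agonist activity of biased ligands at MC4R; human U2OS cells with tagged receptor and beta-arrestin; potency of agonists that increase receptor coupling to beta-arrestin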
[1] = target: T1, Short transient receptor potential channel 4 (Mus musculus, UniProt Q9QUQ5); experiment: mouse TRPC4 channel inhibitors, dose response, cell-based, HEK293 TRPC4/mu-opioid, Fluo-4 calcium (AID 434942); format: functional;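 further: potency of inhibitors blocking the TRPC4 calcium response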
T1 sequence (Q9QUQ5 whole entry): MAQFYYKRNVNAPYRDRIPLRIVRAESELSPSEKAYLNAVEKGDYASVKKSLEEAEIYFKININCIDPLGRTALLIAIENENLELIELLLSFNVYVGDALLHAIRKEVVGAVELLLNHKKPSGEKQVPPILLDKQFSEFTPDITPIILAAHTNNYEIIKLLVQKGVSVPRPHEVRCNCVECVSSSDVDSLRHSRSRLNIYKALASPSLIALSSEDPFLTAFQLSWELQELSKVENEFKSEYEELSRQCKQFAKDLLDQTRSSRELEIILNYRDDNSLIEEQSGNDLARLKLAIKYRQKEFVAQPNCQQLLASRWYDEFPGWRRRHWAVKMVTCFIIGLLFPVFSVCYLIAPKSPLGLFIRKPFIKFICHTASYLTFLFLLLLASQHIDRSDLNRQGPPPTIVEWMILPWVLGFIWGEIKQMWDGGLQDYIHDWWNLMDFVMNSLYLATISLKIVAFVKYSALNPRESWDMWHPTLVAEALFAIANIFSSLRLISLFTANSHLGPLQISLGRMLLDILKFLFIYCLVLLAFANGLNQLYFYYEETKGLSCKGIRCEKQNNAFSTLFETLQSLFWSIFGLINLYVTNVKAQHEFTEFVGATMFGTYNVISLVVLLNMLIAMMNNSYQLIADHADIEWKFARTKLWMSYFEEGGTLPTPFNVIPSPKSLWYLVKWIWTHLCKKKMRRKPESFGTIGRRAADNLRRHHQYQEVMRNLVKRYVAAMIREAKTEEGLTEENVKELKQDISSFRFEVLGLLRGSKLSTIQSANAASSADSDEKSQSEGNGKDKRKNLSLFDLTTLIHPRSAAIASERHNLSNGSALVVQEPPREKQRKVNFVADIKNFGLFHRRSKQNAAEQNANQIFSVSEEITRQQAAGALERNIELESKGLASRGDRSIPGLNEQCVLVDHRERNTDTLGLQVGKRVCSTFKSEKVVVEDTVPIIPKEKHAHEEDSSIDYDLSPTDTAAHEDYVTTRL

[2] = HEp-2 cell cytotoxicity, dose response, cytotoxicity control for RSV inhibitor project, HTS (AID 2410); format: functional; details: human respiratory syncytial virus
Streptokinase A = target: T2, Streptokinase A (Streptococcus pyogenes serotype M1, UniProt P10520); experiment: S. pyogenes streptokinase expression inhibitors, potency, dose response, plasminogen activation absorbance, OD405 (AID 1914); format: functional, Streptococcus pyogenes M1 GAS;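 further: secreted streptokinase activity via plasminogen activation per viability signal from cell pellet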
T2 sequence (P10520 whole entry): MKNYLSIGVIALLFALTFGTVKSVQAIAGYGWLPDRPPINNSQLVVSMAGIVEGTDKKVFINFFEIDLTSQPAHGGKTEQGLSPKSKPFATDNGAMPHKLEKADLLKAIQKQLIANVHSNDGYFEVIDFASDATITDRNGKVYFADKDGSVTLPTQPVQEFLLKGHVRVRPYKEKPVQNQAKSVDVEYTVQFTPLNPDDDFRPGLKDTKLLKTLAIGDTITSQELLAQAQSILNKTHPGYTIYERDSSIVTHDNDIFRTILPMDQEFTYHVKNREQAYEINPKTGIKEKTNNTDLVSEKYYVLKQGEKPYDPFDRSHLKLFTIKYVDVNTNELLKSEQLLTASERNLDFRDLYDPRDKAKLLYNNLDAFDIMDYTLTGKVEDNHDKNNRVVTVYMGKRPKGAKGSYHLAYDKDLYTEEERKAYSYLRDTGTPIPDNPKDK

[3] = target: Serine/threonine-protein phosphatase (Homo sapiens, UniProt Q9BPW0); experiment: PP5 phosphatase inhibitors, dose response, biochemical, fluorescence (AID 2395)
BJ [4] = experiment: cells; format: functional, cell-based; details: Homo sapiens
Beta-galactosidase = Beta-galactosidase (Escherichia coli, UniProt Q8VNN2); experiment: beta-galactosidase enzyme inhibitors and activators, dose response, artefact control for CCR6 antagonist project, biochemical, E. coli enzyme, set 3 (AID 504712); format: functional
[5] = Luminescence-based dose response cell-based high throughput screening assay for cytotoxic compounds using the IEC-6 intestinal epithelial cell line. [Related pubchem assays: 1858 (Summary AID.), 1825 (Counterscreen.), 1907 (Confirmation screen.)]; format: functional
BJ [6] = experiment: cytotoxicity toward BJ-TERT-LT-ST fibroblasts, dose response, cell-based, RAS-independent, luminescence (AID 1935); format: functional; details: Homo sapiens;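 further: BJ fibroblasts immortalized with TERT plus LT and ST oncogenes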
SUMO-activating enzyme = SUMO-activating enzyme (Homo sapiens, UniProt Q9UBT2); experiment: SUMOylation inhibitor hit validation, confirmation, SUMOylation inhibitor project, biochemical, AlphaScreen (AID 2018); format: functional
Chain of SUMO-activating enzyme (Q9UBE0 whole entry): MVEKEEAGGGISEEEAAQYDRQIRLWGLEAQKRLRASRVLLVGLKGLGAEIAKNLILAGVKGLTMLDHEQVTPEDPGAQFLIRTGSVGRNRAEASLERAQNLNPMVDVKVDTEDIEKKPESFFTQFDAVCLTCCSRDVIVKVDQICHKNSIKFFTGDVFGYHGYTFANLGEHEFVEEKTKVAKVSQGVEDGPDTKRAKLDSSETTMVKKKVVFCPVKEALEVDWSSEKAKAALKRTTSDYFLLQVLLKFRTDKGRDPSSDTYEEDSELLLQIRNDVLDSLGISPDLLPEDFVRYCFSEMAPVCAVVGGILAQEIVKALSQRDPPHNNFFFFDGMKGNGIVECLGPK
Chain of SUMO-activating enzyme (Q9UBT2 whole entry): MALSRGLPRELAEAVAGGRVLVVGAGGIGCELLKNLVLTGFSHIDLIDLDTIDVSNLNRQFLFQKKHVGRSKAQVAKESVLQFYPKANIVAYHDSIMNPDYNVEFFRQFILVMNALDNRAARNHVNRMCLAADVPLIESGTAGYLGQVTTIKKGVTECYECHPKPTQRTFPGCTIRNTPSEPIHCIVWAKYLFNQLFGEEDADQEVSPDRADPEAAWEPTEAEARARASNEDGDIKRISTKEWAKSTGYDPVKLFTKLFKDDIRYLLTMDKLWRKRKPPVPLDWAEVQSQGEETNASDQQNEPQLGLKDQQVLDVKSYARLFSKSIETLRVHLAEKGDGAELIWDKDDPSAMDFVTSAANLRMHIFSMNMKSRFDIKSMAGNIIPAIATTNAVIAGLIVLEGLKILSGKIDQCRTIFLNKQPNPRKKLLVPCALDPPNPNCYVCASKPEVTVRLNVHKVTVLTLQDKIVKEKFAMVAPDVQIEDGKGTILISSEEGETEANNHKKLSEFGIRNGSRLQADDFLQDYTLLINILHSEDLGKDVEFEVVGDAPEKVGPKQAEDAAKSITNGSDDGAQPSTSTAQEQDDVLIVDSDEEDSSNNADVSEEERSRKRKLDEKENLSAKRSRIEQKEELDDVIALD

Chain of Melanocortin receptor 4 (P32245 whole entry): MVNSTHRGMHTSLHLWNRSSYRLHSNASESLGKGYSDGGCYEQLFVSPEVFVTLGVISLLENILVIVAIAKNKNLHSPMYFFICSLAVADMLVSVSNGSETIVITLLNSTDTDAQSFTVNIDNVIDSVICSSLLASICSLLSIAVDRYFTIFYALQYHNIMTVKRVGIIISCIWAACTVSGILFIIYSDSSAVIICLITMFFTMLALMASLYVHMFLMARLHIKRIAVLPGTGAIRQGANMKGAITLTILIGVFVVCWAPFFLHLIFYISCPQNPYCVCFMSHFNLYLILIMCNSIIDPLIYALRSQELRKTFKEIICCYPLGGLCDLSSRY
Chain of Serine/threonine-protein phosphatase (Q9BPW0 whole entry): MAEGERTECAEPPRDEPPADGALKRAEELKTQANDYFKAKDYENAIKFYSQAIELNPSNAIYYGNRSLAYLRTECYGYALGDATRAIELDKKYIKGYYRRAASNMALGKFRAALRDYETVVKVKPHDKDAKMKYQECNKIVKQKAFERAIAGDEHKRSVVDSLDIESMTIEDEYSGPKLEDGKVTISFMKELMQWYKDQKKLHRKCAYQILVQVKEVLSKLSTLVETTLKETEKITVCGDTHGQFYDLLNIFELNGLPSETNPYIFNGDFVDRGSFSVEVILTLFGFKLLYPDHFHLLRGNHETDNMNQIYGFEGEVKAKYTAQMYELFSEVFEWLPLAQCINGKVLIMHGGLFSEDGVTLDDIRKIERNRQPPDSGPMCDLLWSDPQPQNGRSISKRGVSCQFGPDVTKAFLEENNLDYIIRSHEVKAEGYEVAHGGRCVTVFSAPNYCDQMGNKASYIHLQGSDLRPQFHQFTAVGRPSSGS
Chain of Beta-galactosidase (Q8VNN2 whole entry): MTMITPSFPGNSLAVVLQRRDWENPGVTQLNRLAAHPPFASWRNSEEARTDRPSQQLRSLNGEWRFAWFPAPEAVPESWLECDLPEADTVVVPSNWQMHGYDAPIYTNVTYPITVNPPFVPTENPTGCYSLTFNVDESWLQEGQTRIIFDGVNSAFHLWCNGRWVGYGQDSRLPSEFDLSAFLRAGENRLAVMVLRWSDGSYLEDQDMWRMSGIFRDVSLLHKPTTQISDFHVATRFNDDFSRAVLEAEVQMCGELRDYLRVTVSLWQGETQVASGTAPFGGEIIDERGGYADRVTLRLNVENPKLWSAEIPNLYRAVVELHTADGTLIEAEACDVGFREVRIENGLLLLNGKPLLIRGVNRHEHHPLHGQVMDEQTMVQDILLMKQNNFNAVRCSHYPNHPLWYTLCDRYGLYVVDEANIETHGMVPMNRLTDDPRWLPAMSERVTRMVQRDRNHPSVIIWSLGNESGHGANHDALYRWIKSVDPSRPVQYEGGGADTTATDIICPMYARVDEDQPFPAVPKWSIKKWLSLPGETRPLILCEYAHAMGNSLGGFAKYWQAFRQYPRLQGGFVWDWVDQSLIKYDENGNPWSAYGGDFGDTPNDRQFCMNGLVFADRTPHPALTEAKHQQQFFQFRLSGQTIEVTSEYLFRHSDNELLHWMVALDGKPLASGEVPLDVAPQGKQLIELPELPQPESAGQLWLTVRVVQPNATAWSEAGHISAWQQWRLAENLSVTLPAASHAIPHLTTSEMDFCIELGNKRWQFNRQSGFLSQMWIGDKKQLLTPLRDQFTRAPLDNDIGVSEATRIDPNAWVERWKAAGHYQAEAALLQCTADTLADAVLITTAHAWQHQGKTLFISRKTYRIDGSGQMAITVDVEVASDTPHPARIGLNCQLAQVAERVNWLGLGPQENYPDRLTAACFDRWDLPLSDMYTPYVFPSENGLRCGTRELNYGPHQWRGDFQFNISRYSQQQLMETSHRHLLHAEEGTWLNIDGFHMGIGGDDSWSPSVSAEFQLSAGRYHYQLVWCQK

## Cc1cccc(C)c1-n1cccc1/C=C1\SC(=S)N(c2cccc(C(=O)O)c2)C1=O
Melanocortin receptor 4
  EC50: > 89.2 µM (inactive)
[1]
  EC50: 3.35 µM (active)
[2]
  CC50: 12.8 µM (active)
Streptokinase A
  EC50: 3.8 µM (active)

## Oc1ccc(/C=N/Nc2cc(N3CCCC3)nc(N3CCCC3)n2)cc1
[3]
  IC50: 10.9 µM (not active)

## COc1ccc(S(=O)(=O)/N=C2\C=C(Nc3ccc(O)cc3)C(=O)c3ccccc32)cc1
BJ [4]
  EC50: 3.21 µM (inconclusive)
Beta-galactosidase
  IC50: 43 µM (inactive)
[5]
  IC50: 0.586 µM (active)
BJ [6]
  EC50: 2.93 µM (inconclusive)

## COc1ccc(/C=N/Nc2cc(N3CCCC3)nc(N3CCCC3)n2)cc1
SUMO-activating enzyme
  IC50: 0.68 µM (active)
